Data as given in patent US20260083865A1, “PROSTATE SPECIFIC MEMBRANE ANTIGEN (PSMA) LIGANDS AND USE THEREOF” (priority 2022, published 2026).
Like-named read-outs stand apart in the source and are kept apart here. Numbered stars: 1 amine (or outer) side, 2 acyl side, 3 side chain; on linkers, the order of the positions; unused ones are H or OH. Bridge positions count the residues as written; N and C are the ends. Square brackets hold non-standard residues; d marks the D form. Side chains are listed from the residue outwards. Peptide text beside a SMILES is read from it. * marks the point of attachment. DOTA = O=C(O)CN1CCN(CC(=O)O)CCN(CC(=O)*)CCN(CC(=O)O)CC1; Phe(4-Cl) = N[C@@H](Cc1ccc(Cl)cc1)C(=O)O; d(αMeD) = C[C@@](N)(CC(=O)O)C(=O)O; hPhe = N[C@@H](CCc1ccccc1)C(=O)O; X1 = O=C(CC1CCN([*:1])CC1)[*:2]; Lys(Me) = CNCCCC[C@H](N)C(=O)O; Tle = CC(C)(C)[C@H](N)C(=O)O; 4Abz = Nc1ccc(C(=O)O)cc1; Aib = CC(C)(N)C(=O)O

Tests used:
[1] = target: T1, Fc-fusion protein of human PSMA (hPSMA-Fc) (Homo sapiens, UniProt Q04609); test: Surface plasmon resonance assay (Biacore T200, single cycle kinetic); assay type: binding; conditions: hPSMA-Fc, 25° C., read-out: pKD CAT (converted)
T1 construct: purchased Acro Biosystems PSA-H5264
Procedure, shortened: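 hPSMA-Fc was captured (~1000 RU) on an Fc-binding-peptide CM5 chip, and compounds were run in single cycle kinetic mode at 25° C in HBST with 0.1% DMSO. Double-blank-corrected sensorgrams were fitted to a 1:1 Langmuir model to give KD, reported as pKD.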

[2] = target: T2, PSMA-expressing C4-2 cells (Homo sapiens, UniProt Q04609); test: FACS binding assay (competition with 50 nM PSM-0183); conditions: C4-2 cells, read-out: pIC50 [C4-2] CAT (converted)
T2 construct: PSMA-expressing C4-2 cells (ATCC, Cat. No. CRL-3314) were cultured in RPMI-1640; host or cells: C4-2 cells
Procedure, shortened: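 C4-2 cells were incubated 1 h at 4 °C with 50 nM AF488-labelled peptide PSM-0183 plus increasing test compound concentrations, then washed twice in ice-cold buffer. Median fluorescence in the AF488 channel was read by flow cytometry. IC50/pIC50 was derived by 4PL fitting of MFI versus concentration.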

[3] = SPR, single cycle kinetic, category
[4] = FACS binding, competition with 50 nM PSM-0183, category
[5] = pKD category for PSMA SPR activity assay

T1 sequence (Q04609 44-750 limits assumed): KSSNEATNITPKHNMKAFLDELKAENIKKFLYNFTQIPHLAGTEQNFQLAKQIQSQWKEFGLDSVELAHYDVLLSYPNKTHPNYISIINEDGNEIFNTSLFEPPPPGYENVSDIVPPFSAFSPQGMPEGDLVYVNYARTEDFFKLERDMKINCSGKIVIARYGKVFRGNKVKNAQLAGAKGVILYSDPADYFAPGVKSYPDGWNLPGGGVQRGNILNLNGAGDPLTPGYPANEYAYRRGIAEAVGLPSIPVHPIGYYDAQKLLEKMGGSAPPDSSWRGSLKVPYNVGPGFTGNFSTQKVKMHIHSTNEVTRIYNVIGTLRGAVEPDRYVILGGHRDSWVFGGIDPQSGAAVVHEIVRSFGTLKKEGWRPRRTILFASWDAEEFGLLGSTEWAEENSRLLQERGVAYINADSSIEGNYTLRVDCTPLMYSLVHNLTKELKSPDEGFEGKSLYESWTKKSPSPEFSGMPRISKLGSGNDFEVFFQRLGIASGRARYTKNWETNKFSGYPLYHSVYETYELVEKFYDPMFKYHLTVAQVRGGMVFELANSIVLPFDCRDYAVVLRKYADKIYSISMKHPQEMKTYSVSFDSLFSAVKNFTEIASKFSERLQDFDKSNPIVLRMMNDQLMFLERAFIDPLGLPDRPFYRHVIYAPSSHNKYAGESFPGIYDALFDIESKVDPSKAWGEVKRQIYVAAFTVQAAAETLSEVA
T2 sequence (Q04609 whole entry): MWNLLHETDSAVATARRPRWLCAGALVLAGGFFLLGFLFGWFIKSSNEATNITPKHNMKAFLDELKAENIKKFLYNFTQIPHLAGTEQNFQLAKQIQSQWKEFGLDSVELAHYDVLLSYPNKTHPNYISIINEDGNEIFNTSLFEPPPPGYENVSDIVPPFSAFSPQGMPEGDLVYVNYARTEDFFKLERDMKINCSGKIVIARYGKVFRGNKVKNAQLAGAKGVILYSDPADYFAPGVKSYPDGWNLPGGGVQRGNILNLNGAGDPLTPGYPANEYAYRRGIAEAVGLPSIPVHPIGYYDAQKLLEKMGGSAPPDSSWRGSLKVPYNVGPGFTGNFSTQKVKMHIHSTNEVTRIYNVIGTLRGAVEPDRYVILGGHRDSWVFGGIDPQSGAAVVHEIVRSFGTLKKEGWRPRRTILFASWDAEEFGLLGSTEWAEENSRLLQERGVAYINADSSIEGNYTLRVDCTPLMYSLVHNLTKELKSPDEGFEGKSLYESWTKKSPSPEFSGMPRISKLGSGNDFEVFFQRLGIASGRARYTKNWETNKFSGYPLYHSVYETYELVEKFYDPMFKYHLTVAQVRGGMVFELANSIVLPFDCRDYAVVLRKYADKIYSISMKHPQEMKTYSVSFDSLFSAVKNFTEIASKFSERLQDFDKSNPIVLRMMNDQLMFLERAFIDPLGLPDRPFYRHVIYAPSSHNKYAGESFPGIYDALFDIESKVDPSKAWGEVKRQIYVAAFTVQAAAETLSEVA

SMILES	Kd [1, 3]	IC50 [2, 4]	Kd [1, 5]	IC50 ([2]; pIC50 category of FACS binding)
C[C@@H](O)[C@H](NC(=O)[C@@H](NC(=O)[C@@H]1CSSC[C@H](NC(=O)[C@H](Cc2ccc(Cl)cc2)NC(=O)C(C)(C)NC(=O)[C@@H](NC(=O)CC2CCN(C(=O)CN3CCN(CC(=O)O)CCN(CC(=O)O)CCN(CC(=O)O)CC3)CC2)[C@@H](C)O)C(=O)N[C@@H](CCCCN)C(=O)N[C@@H](CCCNC(=N)N)C(=O)N[C@](C)(CC(=O)O)C(=O)N[C@@H](CC(N)=O)C(=O)N1)C(C)(C)C)C(N)=O [PSM-0227, DOTA-Cmp-Thr-Aib-Pcf-[Cys-Lys-Arg-amd-Asn-Cys]-Tle-Thr-NH2] ({DOTA}-[X1]T[Aib][Phe(4-Cl)]CKR[d(αMeD)]NC[Tle]T-NH2; disulfide 5-10)	< 12.6 nM	< 200 nM	–	–
CC(=O)N[C@H](C(=O)NC(C)(C)C(=O)N[C@@H](Cc1ccccc1)C(=O)N[C@H]1CSSC[C@@H](C(=O)N[C@H](C(=O)N[C@H](C(=O)N[C@@H](CC(=O)O)C(N)=O)[C@@H](C)O)C(C)(C)C)NC(=O)[C@H](CC(N)=O)NC(=O)[C@H](CCCCNC(=O)CN2CCN(CC(=O)O)CCN(CC(=O)O)CCN(CC(=O)O)CC2)NC(=O)[C@H](CCCNC(=N)N)NC(=O)[C@H](CCCCN)NC1=O)[C@@H](C)O [PSM-0397, Ac-Thr-Aib-Phe-[Cys-Lys-Arg-Lys(DOTA)-Asn-Cys]-Tle-Thr-Asp-NH2] (Ac-T[Aib]FCKRK(DOTA)NC[Tle]TD-NH2; disulfide 4-9)	–	–	12.6 to 126 nM	< 200 nM
CC(=O)N[C@@H](Cc1ccc(Cl)cc1)C(=O)N[C@H]1CSSC[C@@H](C(N)=O)NC(=O)[C@H](CC(N)=O)NC(=O)C(C)(C)NC(=O)[C@H](CCCNC(=N)N)NC(=O)[C@H](CCCCN)NC1=O [PSM-0524, Ac-Pcf-[Cys-Lys-Arg-Aib-Asn-Cys]-NH2] (Ac-[Phe(4-Cl)]CKR[Aib]NC-NH2; disulfide 2-7)	–	–	> 501 nM	> 3160 nM
CNCCCC[C@@H]1NC(=O)[C@@H](NC(=O)[C@H](Cc2ccc(Cl)cc2)NC(=O)C(C)(C)NC(=O)[C@@H](NC(=O)CC2CCN(C(=O)CN3CCN(CC(=O)O)CCN(CC(=O)O)CCN(CC(=O)O)CC3)CC2)[C@@H](C)O)CSSC[C@@H](C(=O)N[C@H](C(=O)N[C@H](C(N)=O)[C@@H](C)O)C(C)(C)C)NC(=O)[C@H](CC(N)=O)NC(=O)C(C)(C)NC(=O)[C@H](CCCNC(=N)N)NC1=O [PSM-0410, DOTA-Cmp-Thr-Aib-Pcf-[Cys-Lys(Me)-Arg-Aib-Asn-Cys]-Tle-Thr-NH2] ({DOTA}-[X1]T[Aib][Phe(4-Cl)]C[Lys(Me)]R[Aib]NC[Tle]T-NH2; disulfide 5-10)	–	–	< 12.6 nM	< 200 nM
CC(=O)N[C@H](C(=O)NC(C)(C)C(=O)N[C@@H](Cc1ccccc1)C(=O)N[C@H]1CSSC[C@@H](C(=O)N[C@H](C(=O)N[C@H](C(N)=O)[C@@H](C)O)C(C)(C)C)NC(=O)[C@H](CC(N)=O)NC(=O)[C@H](CCCCNC(=O)c2ccc(NC(=O)CN3CCN(CC(=O)O)CCN(CC(=O)O)CCN(CC(=O)O)CC3)cc2)NC(=O)[C@H](CCCNC(=N)N)NC(=O)[C@H](CCCCN)NC1=O)[C@@H](C)O [PSM-0211, Ac-Thr-Aib-Phe-[Cys-Lys-Arg-Lys(DOTA-Pab)-Asn-Cys]-Tle-Thr-NH2] (Ac-T[Aib]FCKRK([4Abz-DOTA])NC[Tle]T-NH2; disulfide 4-9)	< 12.6 nM	< 200 nM	–	–
CC(=O)N[C@H](C(=O)NC(C)(C)C(=O)N[C@@H](CCc1ccccc1)C(=O)N[C@H]1CSSC[C@@H](C(=O)N[C@H](C(=O)N[C@H](C(N)=O)[C@@H](C)O)C(C)(C)C)NC(=O)[C@H](CC(N)=O)NC(=O)C(C)(C)NC(=O)[C@H](CCCNC(=N)N)NC(=O)[C@H](CCCCN)NC1=O)[C@@H](C)O [PSM-0411, Ac-Thr-Aib-Hfe-[Cys-Lys-Arg-Aib-Asn-Cys]-Tle-Thr-NH2] (Ac-T[Aib][hPhe]CKR[Aib]NC[Tle]T-NH2; disulfide 4-9)	–	–	< 12.6 nM	< 200 nM
